# Values quoted from earlier work as cited in publication PMC9516332 (Frontiers in Oncology, 2022).
# Where two headings read alike, the source gives them in different places.
# Columns and labels:
# Settings in all cases: cited from earlier work
# [1] = molecular target: panel of 255 wild-type kinases (Homo sapiens, UniProt P08631)
# [2] = molecular target: panel of 255 wild-type kinases (Homo sapiens, UniProt Q9UPE1)
# [3] = molecular target: panel of 255 wild-type kinases (Homo sapiens, UniProt O60674)
# [4] = molecular target: panel of 255 wild-type kinases (Homo sapiens, UniProt P22694)
# [5] = molecular target: panel of 255 wild-type kinases (Homo sapiens, UniProt O75676)
# [6] = molecular target: T1, panel of 255 wild-type kinases (Homo sapiens, UniProt P36888)
# T1 sequence (P36888 27-993): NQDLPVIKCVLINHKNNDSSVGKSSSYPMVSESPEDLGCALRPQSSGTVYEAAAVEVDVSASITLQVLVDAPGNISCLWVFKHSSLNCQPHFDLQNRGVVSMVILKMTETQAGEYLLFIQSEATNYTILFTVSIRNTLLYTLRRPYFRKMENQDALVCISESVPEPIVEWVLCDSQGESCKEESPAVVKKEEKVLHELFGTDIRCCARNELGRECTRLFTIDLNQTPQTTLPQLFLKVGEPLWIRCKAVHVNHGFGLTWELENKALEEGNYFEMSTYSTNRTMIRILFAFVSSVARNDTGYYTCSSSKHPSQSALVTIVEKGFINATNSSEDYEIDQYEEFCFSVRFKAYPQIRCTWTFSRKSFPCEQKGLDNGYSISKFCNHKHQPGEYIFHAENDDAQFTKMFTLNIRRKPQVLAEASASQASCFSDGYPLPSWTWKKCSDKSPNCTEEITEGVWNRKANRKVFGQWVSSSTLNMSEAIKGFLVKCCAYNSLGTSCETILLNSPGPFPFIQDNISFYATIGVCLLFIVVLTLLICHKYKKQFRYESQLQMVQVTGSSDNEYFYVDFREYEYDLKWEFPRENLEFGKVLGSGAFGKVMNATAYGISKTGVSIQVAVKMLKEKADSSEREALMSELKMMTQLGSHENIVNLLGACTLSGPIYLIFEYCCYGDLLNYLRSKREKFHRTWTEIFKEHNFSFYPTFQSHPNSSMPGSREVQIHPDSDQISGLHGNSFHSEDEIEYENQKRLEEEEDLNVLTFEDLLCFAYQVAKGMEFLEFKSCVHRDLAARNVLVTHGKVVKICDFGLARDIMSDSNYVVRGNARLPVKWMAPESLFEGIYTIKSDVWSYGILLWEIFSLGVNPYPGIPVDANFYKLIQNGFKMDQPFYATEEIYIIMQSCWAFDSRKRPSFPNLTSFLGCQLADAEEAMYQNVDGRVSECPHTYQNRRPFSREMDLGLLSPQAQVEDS
# [7] = molecular target: panel of 255 wild-type kinases (Homo sapiens, UniProt P49841)
# [8] = molecular target: panel of 255 wild-type kinases (Homo sapiens, UniProt P51812)
# [9] = molecular target: panel of 255 wild-type kinases (Homo sapiens, UniProt P19525)
# [10] = molecular target: panel of 255 wild-type kinases (Homo sapiens, UniProt Q8IY84)
# [11] = molecular target: panel of 255 wild-type kinases (Homo sapiens, UniProt P54756)
# [12] = molecular target: T2, panel of 255 wild-type kinases (Homo sapiens, UniProt O43781)
# T2 sequence (O43781 1-588): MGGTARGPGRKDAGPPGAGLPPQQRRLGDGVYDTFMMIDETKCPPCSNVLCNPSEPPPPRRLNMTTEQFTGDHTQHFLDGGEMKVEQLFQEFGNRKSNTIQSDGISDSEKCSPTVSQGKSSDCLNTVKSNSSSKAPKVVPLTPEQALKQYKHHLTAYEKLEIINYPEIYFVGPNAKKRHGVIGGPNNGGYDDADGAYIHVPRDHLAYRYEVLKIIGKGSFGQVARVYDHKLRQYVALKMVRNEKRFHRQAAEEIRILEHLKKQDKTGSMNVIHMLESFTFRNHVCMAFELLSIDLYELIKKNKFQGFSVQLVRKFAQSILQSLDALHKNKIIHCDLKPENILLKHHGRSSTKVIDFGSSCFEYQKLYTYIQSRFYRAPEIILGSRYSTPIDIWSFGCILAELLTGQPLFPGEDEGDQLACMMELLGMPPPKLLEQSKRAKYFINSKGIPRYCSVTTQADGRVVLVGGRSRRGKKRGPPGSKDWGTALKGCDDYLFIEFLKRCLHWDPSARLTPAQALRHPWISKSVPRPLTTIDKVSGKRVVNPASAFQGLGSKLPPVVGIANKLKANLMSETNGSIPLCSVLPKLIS
# [13] = kinase HCK, 1 µmol/L single concentration, ref DOI: 10.1158/1535-7163.MCT-18-0877
# [14] = MSSK1, 1 µmol/L single concentration, ref DOI: 10.1158/1535-7163.MCT-18-0877
# [15] = kinase JAK2, 1 µmol/L single concentration, ref DOI: 10.1158/1535-7163.MCT-18-0877
# [16] = kinase PKACβ, 1 µmol/L single concentration, ref DOI: 10.1158/1535-7163.MCT-18-0877
# [17] = MSK2, 1 µmol/L single concentration, ref DOI: 10.1158/1535-7163.MCT-18-0877
# [18] = kinase FLT3, 1 µmol/L single concentration, ref DOI: 10.1158/1535-7163.MCT-18-0877
# [19] = kinase GSK3β, 1 µmol/L single concentration, ref DOI: 10.1158/1535-7163.MCT-18-0877
# [20] = kinase RSK2, 1 µmol/L single concentration, ref DOI: 10.1158/1535-7163.MCT-18-0877
# [21] = kinase PKR, 1 µmol/L single concentration, ref DOI: 10.1158/1535-7163.MCT-18-0877
# [22] = NIM1K, 1 µmol/L single concentration, ref DOI: 10.1158/1535-7163.MCT-18-0877
# [23] = kinase EPHA5, 1 µmol/L single concentration, ref DOI: 10.1158/1535-7163.MCT-18-0877
# [24] = kinase DYRK3, 1 µmol/L single concentration, ref DOI: 10.1158/1535-7163.MCT-18-0877
SMILES,"%-inhibition at 1 µmol/L, HCK [1, 13]","%-inhibition, MSSK1 [2, 14]","%-inhibition at 1 µmol/L, JAK2 [3, 15]","%-inhibition at 1 µmol/L, PKACβ [4, 16]","%-inhibition, MSK2 [5, 17]","%-inhibition at 1 µmol/L, FLT3 [6, 18]","%-inhibition at 1 µmol/L, GSK3β [7, 19]","%-inhibition at 1 µmol/L, RSK2 [8, 20]","%-inhibition at 1 µmol/L, PKR [9, 21]","%-inhibition, NIM1K [10, 22]","%-inhibition at 1 µmol/L, EPHA5 [11, 23]","%-inhibition at 1 µmol/L, DYRK3 [12, 24]",further results
CC#CC(=O)N1CCC[C@H]1c1nc(-c2ccc(C(=O)Nc3ccccn3)cc2)c2c(N)nccn12 [acalabrutinib],0.452%,-5%,-9%,-13%,1.53%,3.27%,-2.39%,0.054%,7%,-7%,-1.17%,0.353%,
COc1cc(N2CCC(N3CCN(C)CC3)CC2)ccc1Nc1ncc(Cl)c(Nc2ccccc2P(C)(C)=O)n1 [brigatinib],,,,,,,,,,,,,"%-inhibition at 1 µmol/L, HCK [1]: 78%; %-inhibition, MSSK1 [2]: 5.3%; %-inhibition at 1 µmol/L, JAK2 [3]: 90%; %-inhibition at 1 µmol/L, PKACβ [4]: 9%; %-inhibition, MSK2 [5]: 10%; %-inhibition at 1 µmol/L, FLT3 [6]: 101%; %-inhibition at 1 µmol/L, GSK3β [7]: -1.81%; %-inhibition at 1 µmol/L, RSK2 [8]: 97%; %-inhibition at 1 µmol/L, PKR [9]: 14%; %-inhibition, NIM1K [10]: 3%; %-inhibition at 1 µmol/L, EPHA5 [11]: 4%; %-inhibition at 1 µmol/L, DYRK3 [12]: 3.23%"
CCc1cc2c(cc1N1CCC(N3CCOCC3)CC1)C(C)(C)c1[nH]c3cc(C#N)ccc3c1C2=O [alectinib],43%,97%,-3%,2%,1.22%,78%,2.37%,14%,5.33%,-2.13%,2.67%,8.44%,
